The results in this text go back to US10695409B2, “Universal cancer peptides derived from telomerase” (INVECTYS, priority 2012, dated 2020).

Assay [1] deals with CD4 T cells. Briefly: Ex vivo IFN-γ ELISPOT of CD8 depleted spleen lymphocytes from TERT DNA-immunized mice. The following applies: mice immunized with DNA encoding TERT. Type of assay: in vivo, A2/DR1 mice. Here is the method: (5A-5B), A2/DR1 mice (n=8) were immunized twice with a DNA encoding TERT.
(5B), CD8 depleted spleen lymphocytes from DNA-immunized mice were assayed in ex vivo IFN-γ ELISPOT. Columns mean of triplicate from 4 mice; bars, SD.
To study the processing of UCP, A2/DR1 mice were immunized with a pTrip-TERT DNA (100 μg) at days 0 and 14 as previously reported (Adotevi et al, 2010). In some experiment CD4 T cells were depleted with anti-CD4 mAb treatment (clone GK1.5) prior DNA immunization. For UCP immunization, mice were injected with 100 μg of each UCP emulsified in incomplete Freund adjuvant (IFA, Sigma-Aldrich, France). In some experiments, 50 μg of pY988 peptide was co-injected with 100 μg of each UCP in IFA. All peptide vaccinations were done subcutaneously (s.c) at the right abdominal flank. Eight to ten week-old mice were bred and maintained in our animal facilities. All experiments were done according to the good laboratory practices defined by animal experimentation rules in France.
Ex vivo pentamer staining was performed as previously described (Adotevi et al, 2010; Adotevi et al, 2006). Cells were stained with PE-conjugated pY988 and pY572 HLA-A2.1 pentamer (ProImmune, UK). After cell staining, samples were analyzed by flow cytometry on a FACS Canto II (BD Biosciences, France) and using Diva software. […]
The inventors and others have previously reported that the use of humanized HLA transgenic mice models to screen for human tumor antigens represents a potent alternative to optimize “reverse immunology” approaches for epitope identification (Adotevi et al, 2006; Osen et al, 2010). […] To assess whether UCPs can be endogenously processed from the TERT protein, the inventors performed immunizations with a plasmid DNA encoding the full length TERT sequence and the UCP-specific CD4 splenocytes were monitored by a five-day 3H-thymidine incorporation assay. […] To this end, freshly isolated CD4 T cells from UCP-vaccinated mice were cultured in the presence of syngenic iDC pulsed or not with UCP and cytokines production was measured.

Assay [2] deals with immature bone marrow-derived DCs. In words: In vitro DC-CD4 T cell co-culture. Type of assay: cell-based, A2/DR1 mice. Particulars: CD4 T cells from UCP2/IFA versus IFA injected mice. The protocol: 8B, Schema of the in vitro DC-CD4 T cell co-culture.
8C, IFN-γ and GM-CSF production measured by ELISA in the supernatant.
8D, Expression of CD86 and HLA-DR on CD11c+ DC.
8E, Interleukin 12 production measured in supernatant by ELISA.
Spleen or lymph nodes CD11c+ DCs from peptide-immunized mice were directly analyzed for co-stimulatory receptor expression. In some experiments, immature bone marrow-derived DCs (iDC) from A2/DR1 mice were cultured 15-h with CD4 T cells from mice immunized with UCP or IFA alone and then stained for cell surface expression of co-stimulatory receptors and cytokines production.
The induction of dendritic cell activation represents one major helper mechanism used by CD4+ Th1 cells to sustain antigen presentation and provide costimulatory signals to the CTLs. This is referred as the “ménage à trois” model (Ridge et al, 1998). To test this mechanism, the inventors have analyzed the expression of co-stimulating receptors on DCs from mice immunized with the mix of pY988+/−UCP2. […] In a second set of experiments, isolated CD4 T cells from UCP2/IFA or IFA injected mice were co-cultured with syngenic iDCs as shown in FIG. 8B. As expected, UCP2-specific CD4 T cells produced significant amounts of Th1 cytokines such as IFN-γ and GM-CSF (FIG. 8C).

For assay [3], the system named is blood lymphocytes from NSCLC patients and healthy volunteers. In words: Spontaneous UCP-specific T cell responses, IFN-γ ELISPOT after one week stimulation. Type of assay: cell-based, human. The following applies: frequency of T cell responses.
Assay [4] relates to CD4 T cells. Briefly: Avidity of UCP-specific CD4 T cells from UCP-immunized mice, IFN-γ ELISPOT. Type of assay: in vivo, A2/DR1 mice. The following applies: vaccinated once, ~1 μg peptide. Here is the method: (5C-5D), Mice (3-4/group) were immunized once with each UCP in IFA.
(5D), Isolated CD4 T cells were cultured ex vivo with increasing concentrations of peptide as indicated. IFN-γ production was measured by ELISPOT. Curves, mean responses from 3 mice, bars, SD.
(5E), Mice were vaccinated once with low dose of UCP as indicated. UCP-specific T cell responses were evaluated in spleen by ex vivo IFN-γ ELISPOT.
(§1) To study the processing of UCP, A2/DR1 mice were immunized with a pTrip-TERT DNA (100 μg) at days 0 and 14 as previously reported (Adotevi et al, 2010). In some experiment CD4 T cells were depleted with anti-CD4 mAb treatment (clone GK1.5) prior DNA immunization. For UCP immunization, mice were injected with 100 μg of each UCP emulsified in incomplete Freund adjuvant (IFA, Sigma-Aldrich, France). In some experiments, 50 μg of pY988 peptide was co-injected with 100 μg of each UCP in IFA. […]
(§2) Ex vivo pentamer staining was performed as previously described (Adotevi et al, 2010; Adotevi et al, 2006). […] After cell staining, samples were analyzed by flow cytometry on a FACS Canto II (BD Biosciences, France) and using Diva software. […]
Next, to assess the avidity of UCP-specific CD4 T cell, freshly purified CD4 T cells from UCP-immunized mice were cultured in the presence of increasing concentrations of peptide and the number of specific IFN-γ producing CD4 T cells was measured by ELISPOT. […]

The subject of assay [5] is UCP-specific CD4 T cell clones. Briefly: TNF secretion of UCP-specific CD4 T cell clones from cancer patient, flow cytometry. Type of assay: cell-based, human. The following applies: CD4 T cell clones with cognate peptide, 5 h, Brefeldin A; read-out: peptide concentration at half-maximal TNF secretion. The protocol: T cell clones were obtained by limiting dilution of cancer patients T cell lines stimulated one time with the pool of UCPs. (2A and 2C) Percentage of TNF-producing T cells and of T cell clones isolated from patients GE001 in response to 10 μM of the relevant UCP; 10^5 T cells were incubated for 5 h in the presence of Brefeldin A, stained with CD4 antibody, fixed, and stained with anti-TNF antibody in a permeabilization buffer; 10^4 T cells were then analyzed in flow cytometry. (2B and 2D) Reactivity of the CD4 T cell clones in response to relevant UCP. CD4 T cell clones were culture with a range of the indicated peptide concentration. TNF secretion was assessed 5 h in the presence of Brefeldin A, by flow cytometry. (2E) Detection of cytokines produced by GE001.36 T cell clone in response to 10 μM of UCP4 using human ten-plex cytokines assay. […]
For intracytoplasmic cytokine staining, after a 5-h stimulation period with or without 10 μM peptide, T cells were labeled with anti-CD4 (BD Bioscience, USA) and anti-TNF-α (ebioscience, USA) using Cytofix/Cytoperm KIT (BD Bioscience). […] Samples were acquired on a FACS Canto II (BD Biosciences) and analyzed with the DIVA software. […]

Assay [6] relates to HLA-DR molecules. Briefly: HLA-DR binding assay, competitive ELISA, summary over the alleles tested. Details: species or system human. The following applies: RA intermediate 100-500, low <100. Here is the method: (§3) Synthetic peptides (>80% purity) were purchased from Activotec (Cambridge, United Kingdom). The binding capacity to HLA-DR molecules was assessed by competitive ELISA as previously reported (Wang et al).
(§4) To predict the existence of CD4 epitopes within the amino acid sequence of TERT capable of binding to multiple HLA-DR molecules, the inventors have combined results from three algorithms Syfpeithi, NetMHCpan-2.1 and NetMHC2.2. They have selected four 15-mers peptide sequences referred as UCP1 to UCP4 that scored high in the probability scale for their binding capacity to the commonly found human HLA-DR alleles (Table 1). […] Data are expressed as relative activity RA (ratio of the IC50 of UCPs to the IC50 of the reference peptide) and are the means of three experiments. Good binders have a […] and weak binder are […].
Thus, according to phenotypic frequencies of the 10 prevalent HLA-DR antigens, these peptides could cover more than 90% of population (Wang et al).

Assay [7] deals with pY988-specific CD8 T cells. Briefly: Co-immunization pY988 plus UCP: pY988-specific CTL response by pentamer staining and IFN-γ ELISPOT. Type of assay: in vivo, A2/DR1 mice. Particulars: pY988 plus UCP in IFA versus pY988/IFA alone, day 10, spleen.
Excerpt: Mice (3/group) were immunized either with pY988 plus each UCP in IFA or with pY988/IFA alone and the immune responses were monitored ten days later in the spleen. 6A, freshly isolated CD8 T cells were stained with TERT pY988/A2+ pentamer. Representative flow cytometry dot plots (upper panel) and mean percentages of pY988/A2+ CD8 T cells (lower panel) are shown.
6B, Ex vivo detection of anti-pY988 CD8 T cells by IFN-γ ELISPOT.
as §1, §2
CD4 T cell helper functions are thought to be important for the generation of potent and sustained CTL responses (Shedlock et al, 2003). […] The pY988-specific CTL response was measured ex vivo by pentamer staining and ELISPOT assays. […]

In assay [8] the test system is HLA-DR DR11. In words: HLA-DR binding assay, competitive ELISA. Details: species or system human. Particulars: means of three experiments.
For assay [9], the system named is HLA-DR DR3. Briefly: HLA-DR binding assay, competitive ELISA. Details: species or system human. The following applies: means of three experiments. Here is the method:
as §3, §4
(In an ELISA, binding on a coated surface is turned into a signal by an enzyme label.)

The target in assay [10] is HLA-DR DRB4 (Homo sapiens, UniProt P01903+P13762). In words: HLA-DR binding assay, competitive ELISA. The following applies: means of three experiments. Here is the method: as §3, §4
Assay [11] relates to HLA-DR DR13. Briefly: HLA-DR binding assay, competitive ELISA. Details: species or system human. Particulars: means of three experiments. Here is the method:
as §3, §4

On to “KSVWSKLQSIGIRQH [UCP2, universal cancer peptide derived from TERT, 15-mer]”, for which the “specific CD4 T cell responses detected” value in assay [1] was “in all immunized mice”. For the same sequence, the “DC activation and interleukin-12 production in presence of UCP2-specific CD4 T cells” value in assay [2] is “induced potent DCs activation”. In [3], the “CD4 T cell responses to individual UCPs” value was “more immunogenic”. Further, in [4], the “IFN-γ+ CD4 T cells after low dose vaccination” value was “stimulated potent IFN-γ+ CD4 T cells”. In addition, in assay [5], the EC50 was about 4 µM. The “capacity to bind HLA-DR molecules” value in assay [6] is given as “able to bind every HLA-DR molecules tested”.
With “PAAFRALVAQCLVCV (listed as Homo sapiens) [UCP1, universal cancer peptide derived from TERT, 15-mer]”, the “frequency of pY988/A2 pentamer+ CD8 T cells” value in assay [7] is listed as “little impact”. Moreover, the “Relative affinity RA (ratio of the IC50 of UCPs to the IC50 of the reference peptide)” value in assay [8] was found to be 25; in assay [9], 0.4. Further, in assay [6], the “capacity to bind HLA-DR molecules” value was “able to bind every HLA-DR molecules tested”.
Turning to “SLCYSILKAKNAGMS [UCP4, universal cancer peptide derived from TERT, 15-mer]”, in [1], the “specific CD4 T cell responses detected” value was “in all immunized mice”. Moreover, the “CD4 T cell responses to individual UCPs” value in assay [3] is “more immunogenic”. Besides, the “Relative affinity RA (ratio of the IC50 of UCPs to the IC50 of the reference peptide)” value in assay [10] is reported as over 500; in assay [8], 0,3; in assay [11], over 500; in assay [9], over 500. For the same sequence, the EC50 in assay [5] was under 0.1 µM.
Take GTAFVQMPAHGLFPW [UCP3]: in assay [1], the “specific CD4 T cell responses detected” value was “in all immunized mice”. Moreover, in assay [4], the “IFN-γ+ CD4 T cells after low dose vaccination” value was “stimulated potent IFN-γ+ CD4 T cells”.
